Assay results from the NIST ThermoML archive (doi:10.1016/j.fluid.2013.09.026).

Experiment: cn = amount concentration of the nth substance listed, in mol/dm3
Conditions: 303 K, 101 kPa, Liquid; for viscosity: Capillary tube (Ostwald / Ubbelohde) method; for speed of sound: Linear variable-path acoustic interferometer; for mass density: Pycnometric method

O=C1C(Cl)=C(Cl)C(=O)C(Cl)=C1Cl [2,3,5,6-tetrachloro-p-benzoquinone] + C[S+](C)[O-]
Conditions | mass density [kg/m3] | speed of sound [m/s] | viscosity [mPa·s]
c1 = 0.002 | 1091.4 | 1472.4 | 1.756
c1 = 0.004 | 1091.6 | 1472.6 | 1.757
c1 = 0.006 | 1091.9 | 1471.9 | 1.758
c1 = 0.008 | 1091.9 | 1471.3 | 1.773
c1 = 0.01 | 1092.1 | 1471.6 | 1.769
c1 = 0.012 | 1091.6 | 1470.3 | 1.767
c1 = 0.014 | 1091.4 | 1467.1 | 1.76
c1 = 0.016 | 1091.2 | 1468.3 | 1.756
c1 = 0.018 | 1091.7 | 1468.5 | 1.767
c1 = 0.02 | 1091.7 | 1468.7 | 1.769

Cc1ccccc1N [2-methylaniline] + C[S+](C)[O-]
Conditions | mass density [kg/m3] | speed of sound [m/s] | viscosity [mPa·s]
c1 = 0.002 | 1090.8 | 1471.4 | 1.713
c1 = 0.004 | 1090.4 | 1471.8 | 1.713
c1 = 0.006 | 1090.5 | 1472 | 1.723
c1 = 0.008 | 1089.6 | 1471.2 | 1.718
c1 = 0.01 | 1089.5 | 1472.6 | 1.72
c1 = 0.012 | 1090 | 1473.5 | 1.723
c1 = 0.014 | 1089.7 | 1472.5 | 1.718
c1 = 0.016 | 1089.8 | 1471.9 | 1.724
c1 = 0.018 | 1089.4 | 1473 | 1.733
c1 = 0.02 | 1090.3 | 1473.9 | 1.723

CN(C)c1ccccc1 [N,N-dimethylaniline] + C[S+](C)[O-]
Conditions | mass density [kg/m3] | speed of sound [m/s] | viscosity [mPa·s]
c1 = 0.002 | 1090.7 | 1471.9 | 1.734
c1 = 0.004 | 1090.4 | 1472.5 | 1.725
c1 = 0.006 | 1090.7 | 1471.9 | 1.721
c1 = 0.008 | 1090.6 | 1472.6 | 1.731
c1 = 0.01 | 1089.9 | 1471.8 | 1.747
c1 = 0.012 | 1089.6 | 1472.1 | 1.724
c1 = 0.014 | 1090.1 | 1472.3 | 1.73
c1 = 0.016 | 1089.8 | 1471.6 | 1.731
c1 = 0.018 | 1090.3 | 1472.2 | 1.733
c1 = 0.02 | 1090.2 | 1472 | 1.732

CNc1ccccc1 [N-methylaniline] + C[S+](C)[O-]
Conditions | mass density [kg/m3] | speed of sound [m/s] | viscosity [mPa·s]
c1 = 0.002 | 1090.8 | 1471.6 | 1.713
c1 = 0.004 | 1090.4 | 1471.8 | 1.713
c1 = 0.006 | 1090 | 1472 | 1.723
c1 = 0.008 | 1089.6 | 1471.2 | 1.718
c1 = 0.01 | 1089.8 | 1471.7 | 1.724
c1 = 0.012 | 1090 | 1473.5 | 1.733
c1 = 0.014 | 1089.7 | 1472.5 | 1.723
c1 = 0.016 | 1089.8 | 1471.9 | 1.718
c1 = 0.018 | 1089.8 | 1473 | 1.718
c1 = 0.02 | 1090.1 | 1473.9 | 1.72

Nc1ccccc1 [aniline] + C[S+](C)[O-]
Conditions | mass density [kg/m3] | speed of sound [m/s] | viscosity [mPa·s]
c1 = 0.002 | 1090.4 | 1471.6 | 1.789
c1 = 0.004 | 1090.6 | 1473.9 | 1.798
c1 = 0.006 | 1090.7 | 1473.4 | 1.79
c1 = 0.008 | 1090.2 | 1472.7 | 1.79
c1 = 0.01 | 1090.6 | 1474.1 | 1.806
c1 = 0.012 | 1090.4 | 1473.7 | 1.777
c1 = 0.014 | 1090.5 | 1472.7 | 1.802
c1 = 0.016 | 1090.3 | 1472.8 | 1.819
c1 = 0.018 | 1090.4 | 1473 | 1.79
c1 = 0.02 | 1090.6 | 1474 | 1.792
